# Measurements from ChEMBL document CHEMBL1126382, “Synthesis and anti-HIV activity of pyrrolo-[1,2-d]-(1,4)-benzodiazepin-6-ones” (Bioorg Med Chem Lett, 1992).
# Columns and labels:
# [1] = tested on: MT2; experiment: Inhibition concentration required to protect 50% of cells(MT-2) from HIV induced death was determined; format: functional; settings: Homo sapiens, read-out: TC50 (the source's name)
# [2] = tested on: MT2; experiment: Inhibition concentration required to protect 90% of cells(MT-2) from HIV induced death was determined; format: functional; settings: Homo sapiens
# [3] = tested on: MT2; experiment: Inhibition concentration required to protect 50% of cells(MT-2) from HIV-1(rod) induced death was determined; format: functional, cell-based; settings: Homo sapiens
# [4] = tested on: MT2; experiment: Inhibition concentration required to protect 90% of cells(MT-2) from HIV-1(rf) induced death was determined; format: functional; settings: Homo sapiens
# [5] = tested on: Human immunodeficiency virus 1; experiment: (§1) Inhibitory concentration against HIV-1 was determined; format: functional
# [6] = tested on: MT2; experiment: Inhibition concentration required to protect 90% of cells(MT-2) from HIV-1(3b) induced death was determined; format: functional; settings: Homo sapiens
# [7] = tested on: MT2; experiment: Inhibition concentration required to protect 50% of cells(MT-2) from HIV-1(3b) induced death was determined; format: functional; settings: Homo sapiens, read-out: TC50 (the source's name)
# [8] = tested on: Human immunodeficiency virus 1; experiment: as §1; format: functional, organism-based
Compound,CC50 [1] [µg/mL],IC90 [2] [µg/mL],other results
O=C1Nc2ccccc2-c2cccn2[C@H]1Cc1ccccc1,21,> 21,–
O=C1Cn2cccc2-c2ccccc2N1,> 50,> 50,–
O=C(C[C@H]1C(=O)Nc2ccccc2-c2cccn21)OCc1ccccc1,10,0.29,IC50 [3]: 3 µg/mL; IC90 [4]: 0.29 µg/mL; IC90 [5]: 800 nM; IC90 [6]: > 0.3 µg/mL; CC50 [7]: > 10 µg/mL
O=C1c2ccccc2C(=O)N1CCCCCN1C(=O)[C@H](Cc2ccc(O)cc2)n2cccc2-c2ccccc21,> 50,2.6,–
O=Cc1ccc2n1CC(=O)Nc1ccccc1-2,> 50,> 50,–
CN1C(=O)[C@H](Cc2ccc(O)cc2)n2cccc2-c2ccccc21,5.2,> 5.2,–
O=C(O)C[C@H]1C(=O)Nc2ccccc2-c2cccn21,> 50,> 50,–
O=C1[C@H](Cc2ccc(O)cc2)n2cccc2-c2ccccc2N1CCc1ccc(O)cc1,10,0.8,–
O=C1c2ccccc2C(=O)N1CCCCN1C(=O)[C@H](Cc2ccc(O)cc2)n2cccc2-c2ccccc21,23,> 23,–
O=Cc1ccc2n1[C@@H](Cc1ccccc1)C(=O)Nc1ccccc1-2,2.5,> 2.5,–
O=C1Nc2ccccc2-c2cccn2[C@H]1Cc1ccc(O)cc1,23,> 23,–
CC(C)=CCN1Cc2cccc3[nH]c(=S)n(c23)C[C@@H]1C,–,–,IC50 [8]: 28 nM
Cc1ccnc2c1NC(=O)c1cccnc1N2C1CC1 [NEVIRAPINE],–,–,IC50 [8]: 40 nM
CC(C)=CCN1Cc2cc(Cl)cc3nc(S)n(c23)CC1C (stereo not drawn) [TIBO],–,–,IC50 [3]: > 50 µg/mL; IC90 [4]: 0.15 µg/mL; IC90 [6]: 1.5 µg/mL; CC50 [7]: 55 µg/mL
